Columns and labels:
[1] = Hepatocyte incubation, metabolism followed by turbulent flow LC-MS-MS; format: in vitro ADME, human, dog; settings: test compound 2 μM, sampled 0-180 minutes; transitions 439 to 84 (ketone) and 441 to 84 (alcohol)
Protocol: Hepatocyte incubations were used to determine the metabolism of both compound 1A according to the present invention and also the compound of Preparation 1. In such testing a marker compound was routinely included to ensure reproducible, active preparations were obtained.
Standard methodologies relating to hepatocyte testing can be found in: Carlille, D, Zomorodi, K, Houston, B; Drug Met. Dispos. 1997, 25(8), pp903-911, “Scaling factors to relate drug metabolic clearance in hepatic microsomes isolated hepatocytes, and the intact liver”.
Marker compound: 0.3 mM Propranolol in 100% DMSO.
Test materials (e.g. compound 1A) 1 mg/ml stocks or 3 mM in 100% DMSO.
Human hepatocytes used at a concentration of 2×10^6 cells/ml (per compound tested).
Dog hepatocytes used at a concentration of 1×10^6 cells/ml (per compound tested).
William's E buffer (1 pot of William's E powder from Sigma, 900 ml distilled water, 2.2 g sodium bicarbonate, 100 ml Foetal Bovine Serum) STOP solution (Midazolam internal standard plus acetonitrile: 600 μl of 10 μg/ml midazolam +30 ml acetonitrile). […]
Hepatocyte viability was determined using the Trypan Blue Exclusion method by gentle mixing of 350 μl KH buffer+100 μI Trypan Blue solution+50 μl cell suspension in an eppendorf tube. The cells were then counted using a haemocytometer. […] The number of viable (colourless) cells within 10 squares was recorded. […]

[2] = In vivo interconversion of compound 1A and the compound of Preparation 1; settings: no species or method printed
cGMP PDE5 = target: T1, cGMP PDE5 (Homo sapiens, UniProt O76074); experiment: Phosphodiesterase (PDE) inhibitory activity, in vitro IC50; format: biochemical; settings: read-out: IC50 as an inhibitor of cGMP PDE5
T1 construct: were obtained from human corpus cavernosum or human platelets; from tissue; host or cells: human corpus cavernosum or human platelets
Protocol: The compounds of the present invention are cGMP PDE5 inhibitors. In vitro PDE inhibitory activities against cyclic guanosine 3′,5′-monophosphate (CGMP) and cyclic adenosine 3′,5′-monophosphate (cAMP) phosphodiesterases were determined by measurement of their IC50 values (the concentration of compound required for 50% inhibition of enzyme activity).
The required PDE enzymes were isolated from a variety of sources, including human corpus cavernosum, human and rabbit platelets, human cardiac ventricle, human skeletal muscle and human and canine retina, essentially by the method of W. J. Thompson and M. M. Appleman (Biochem., 1971, 10, 311). In particular, the cGMP-specific PDE (PDE5) and the cGMP-inhibited cAMP PDE (PDE3) were obtained from human corpus cavernosum or human platelets; the cGMP-stimulated PDE (PDE2) was obtained from human corpus cavernosum and human platelets; the calcium/calmodulin (Ca/CAM)-dependent PDE (PDE1) from human cardiac ventricle; the cAMP-specific PDE (PDE4) from human skeletal muscle and human recombinant, expressed in SF9 cells; and the photoreceptor PDE (PDE6) from human or canine retina. Phosphodiesterases 7-11 were generated from full length human recombinant clones transfected into SF9 cells. […]

Row | Compound | mass transition of the starting compound during hepatocyte incubation; product transition then appears [1] | conversion in vivo (pro-drug / metabolite relation) [2] | IC50 (cGMP PDE5) [nM]
1 | CCCCOc1ncc(C(C)O)cc1-c1nc2c(CC)n(C3CN(CC)C3)nc2c(=O)[nH]1 (centres unmarked) [Example 1A, 5-[2-Butoxy-5-(1-hydroxyethyl)-3-pyridinyl]-3-ethyl-2-(1-ethyl-3-azetidinyl)-2,6-dihydro-7H-pyrazolo[4,3-d]pyrimidin-7-one] | reduces to levels below the detection limit of the equipment | converted in vivo to provide the compound of Preparation 1 | 825
2 | CCCCOc1ncc(C(C)=O)cc1-c1nc2c(CC)n(C3CN(CC)C3)nc2c(=O)[nH]1 [Preparation 1, 5-(5-acetyl-2-butoxy-3-pyridinyl)-3-ethyl-2-(1-ethyl-3-azetidinyl)-2,6-dihydro-7H-pyrazolo[4,3-d]pyrimidin-7-one, reference compound] | reduces to levels below the detection limit of the equipment | Compound 1A is a metabolite of the compound of Preparation 1 | –

Reference: patent US20020173502A1, “Pharmaceutically active compounds” (priority 2001, published 2002)
